pIC50: −log10 of the molar value. Where “and” joins values, the source holds several entries; their conditions need not be identical. Equal entries are not always repeated. Entries after “also recorded” stand apart in the source; their conditions may differ. Where two headings read alike, the source gives them in different places.
Tests used:
[1] = system: T-ALL and breast cancer cell lines; test: Growth inhibition in tumour cell lines (panel, cell lines not named singly); assay type: cell-based; parameters: key to tumor cell growth: + indicates that the compound had an effect; -: − indicates that there was no significant effect in the respective assay; conditions: for viability assay: overview in comparison to compound C, Supplemental Fig. 9; for pIC50: six days, read-out: IC50, metabolic activity; for tumor cell growth: summary Fig. 8E
Text: We next investigated whether compounds A-E affected growth and viability of cell lines from T-cell acute lymphoblastic leukaemia (T-ALL) and breast cancer, two tumour types in which elevated Notch signalling has been implicated in tumorigenesis. […] When testing analogues of compounds B and C, five of the seven B analogues and one of the two C analogues produced dose–response curves and IC50s, which however were higher compared to the original hits (Supplemental Fig. 5A; IC50s are presented in Supplemental Table 6).
Compounds were spotted on white 384-well tissue culture plates (Greiner, cat #781080) using an Echo 525 Acoustic liquid handler (Labcyte). Cells were grown to 80% confluence, detached if required, counted and 20 µl containing 2000–4000 cells per well was then seeded in each well and cultivated for three (4,000 cells seeded) and six days (2,000 cells seeded). […] Luciferase activity (reading out metabolic activity) was determined using the CellTiter-Glo 2.0 kit (CTG, Promega, cat #G9242) following the manufacturer’s instructions and luminescence was measured on a SpectraMaxi3 or Varioscan plate reader (Molecular Devices, Thermofisher).

[2] = system: Notch signalling; test: Notch reporter assay (12xCSL firefly luciferase / renilla luciferase, HEK293T Notch1ΔE reporter cell line clone #A1-11); assay type: cell-based; parameters: AUC Notch: scale not given here; conditions: for AUC 9p Notch reporter assay / AUC 14p Notch reporter assay: AUCs averaged when replicates available; for AUC Notch: area under the 14-point dose-response curve; for Notch assay: overview in comparison to compound C, Supplemental Fig. 9; for Bottom (Emax): Emax indicated independent from assay constraints, in % (unit assumed); for activity: 1,25µM; for concentrations associated with cytotoxicity (high dose-points removed): extended dose range, Supplemental Fig. 7B
Outline: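 Compounds at two-fold concentration in 10 µl medium were brought to one-fold by adding 10 µl holding 4000 Notch reporter cells (clone #A1-11) per well of a 384-well plate. After 24 h, Promega dual-GLO firefly and renilla luciferase were read on a SpectraMaxi3. Dose-response curves were fitted with a log(inhibitor) vs. response variable-slope model.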

[3] = 14p dose response, single replicates, read-out: approximated IC50s 14p Notch reporter assay
[4] = Homo sapiens, HEK-293T, 9p dose response, averaged over replicates, read-out: 9p Notch reporter assay averaged IC50s
[5] = Homo sapiens, HEK-293T, 9p dose response, log10 of averaged IC50, read-out: 9p Notch reporter assay averaged IC50s (log) (converted)
[6] = Homo sapiens, HEK-293T, 14-point, unit inferred, replicates averaged, read-out: approxiated IC50s 14p Notch reporter assay
[7] = Homo sapiens, HEK-293T, 14p Notch assay DR, log10 value, Notch inhibitor controls, no bottom constraint named, read-out: approximated LogIC50 (converted)
[8] = Homo sapiens, HEK-293T, 14p dose response, single replicates, read-out: approximated IC50s 14p Notch reporter assay
[9] = Homo sapiens, HEK-293T, 14p dose response, log10 of averaged IC50, read-out: 14p Notch reporter assay averaged IC50s (log) (converted)
[10] = 9p dose response, single replicates, read-out: approximated IC50s 9p Notch reporter assay
[11] = Homo sapiens, HEK-293T, 14-point dose-response, Fig. 4, read-out: approximated IC50, Notch reporter assay
[12] = Homo sapiens, HEK-293T, 14p Notch assay DR, bottom constrained to Emax of positive control DAPT, read-out: approximated IC50
[13] = Homo sapiens, HEK-293T, 14p Notch assay DR, bottom constrained to Emax of positive control RO4929097, read-out: approximated IC50
[14] = Homo sapiens, HEK-293T, 14p Notch assay DR, log10 value, bottom constrained to Emax of positive control DAPT, read-out: approximated LogIC50 (converted)
[15] = Homo sapiens, HEK-293T, 14p Notch assay DR, log10 value, bottom constrained to Emax of positive control RO4929097, read-out: approximated LogIC50 (converted)
[16] = Homo sapiens, HEK-293T, 10 µM, primary screen, 24 h, unit from Fig. 2 legend, read-out: Primary screen at 10 µM (Notch reporter signal)
[17] = Homo sapiens, HEK-293T, 10 µM, three-dose confirmation screen, unit from Fig. 2 legend, read-out: Hit confirmation at 10 µM (Notch reporter signal)
[18] = Homo sapiens, HEK-293T, 10µM, 3-point DR confirmation screen, Notch reporter assay, read-out: inhibitor ratio in % of DMSO in 3 point DR
[19] = Homo sapiens, HEK-293T, 10 µM, sheet conf vs counter 10 µM, same values as 3-point DR confirmation screen, read-out: Confirmation screen
[20] = Homo sapiens, HEK-293T, 25µM, 3-point DR confirmation screen, Notch reporter assay, read-out: inhibitor ratio in % of DMSO in 3 point DR
[21] = Homo sapiens, HEK-293T, 25 µM, Notch reporter 3-point dose-confirmation assay, sheet "conf vs counter 25 µM", read-out: Confirmation screen
[22] = Homo sapiens, HEK-293T, 3-point DR confirmation screen, Notch reporter assay, read-out: inhibitor ratio in % of DMSO in 3 point DR

| SMILES | pIC50 [2, 3] | pIC50 [2, 6] | pIC50 ([1]; all cell lines (breast cancer)) | pIC50 [2, 11] | pIC50 [2, 12] | IC50 [2, 14] | viability assay [1] | AUC 9p Notch reporter assay ([2]; 9p dose response) | AUC 14p Notch reporter assay ([2]; 14p dose response) | AUC Notch ([2]; replicates averaged) | Notch assay [2] | Bottom (Emax) ([2]; 14p Notch assay DR) | tumor cell growth [1] | activity at 10 µM [2, 16] | activity at 10 µM [2, 17] | activity at 10 µM [2, 18] | activity at 10 µM [2, 19] | activity at 25 µM [2, 20] | activity at 25 µM [2, 21] | activity [2, 22] | further results |
| --- | --- | --- | --- | --- | --- | --- | --- | --- | --- | --- | --- | --- | --- | --- | --- | --- | --- | --- | --- | --- | --- |
| C[C@H](NC(=O)Cc1cc(F)cc(F)c1)C(=O)N[C@H](C(=O)OC(C)(C)C)c1ccccc1 [DAPT, reference compound] | 6.29 and 6.43 |  |  |  |  |  | context specific | 3.01E+02 | 4.95E+02 | 495.0 | comparable | 42.8 and 41.0 |  |  |  |  |  |  |  |  | reporter signal in % of DMSO ([2]; 10 µM, inhibitor controls, Supplemental Fig. 2A): 49%; pIC50 [2, 10]: 6.54 and 6.59; pIC50 ([2]; 9p dose response, averaged over replicates, read-out: 9p Notch reporter assay averaged IC50s): 6.55; 9p Notch reporter assay averaged IC50s (log) ([2]; 9p dose response, log10 of averaged IC50): -6.6; pIC50 ([2]; 14-point, unit inferred, replicates averaged, read-out: approxiated IC50s 14p Notch reporter assay): 6.36; approximated LogIC50 [M] ([2]; 14p Notch assay DR, log10 value, Notch inhibitor controls, no bottom constraint named): -6.3 M; 14p Notch reporter assay averaged IC50s (log) ([2]; 14p dose response, log10 of averaged IC50): -6.4; renilla signal ([2]; 384-well format): not affected |
| CCc1c(C(=O)N(C)Cc2cnn(C(C)C)c2)[nH]c2ccccc12 [compound A] |  | 5.47 | < 5.00 | 5.48 | 5.38 | 3980 nM |  |  |  | 535.0 |  |  | - | 25.3% | 27.7% | 27.7% | 27.7% | 19% | 19% | 65.8% | pIC50 ([2]; Homo sapiens, HEK-293T, 14-point dose-response, read-out: approximated IC50, Notch reporter assay): 5.40; pIC50 [2, 13]: 5.60; IC50 [2, 15]: 2510 nM |
| Cc1ccc2[nH]c3c(c2c1)CCOC31CCN(Cc2ccccc2-c2ccccc2)CC1 [compound B] |  | 6.04 |  | 6.05 | 5.92 | 1260 nM |  |  |  | 573.0 |  |  | + | 60.8% | 65% |  | 65% |  | 69.3% | 79.7% | pIC50 [2, 13]: 6.23; IC50 [2, 15]: 631 nM; concentrations associated with cytotoxicity (high dose-points removed) [2]: higher than 5 µM |
| COc1cccc(CNc2ccc(N3CCCCC3)cc2)c1OCc1cccs1 [compound C] |  | 5.92 |  |  |  | 1260 nM | context specific |  |  | 584.0 | nanomolar potency | 45.4 | + | 50.1% | 66.2% | 66.2% | 66.2% | 65.1% | 65.1% | 61.8% | pIC50 ([1]; Homo sapiens, the other breast cancer cell lines (other than MDA-MB-468)): < 5.00; Hill slope, Notch reporter assay ([2]; 14-point dose-response): -16.2; pIC50 ([2]; Homo sapiens, HEK-293T, dose range 50 µM-2.5 nM, Fig. 7E, read-out: IC50, Notch reporter activity): 6.82; concentrations associated with cytotoxicity (high dose-points removed) [2]: higher than 12.5 µM |
| NC(=O)c1c(NC(=O)NCc2cccnc2)sc2c1CCC2 [compound D] |  | 6.11 | < 5.00 | 6.00 | 5.89 | 1580 nM |  |  |  | 273.0 |  |  | - | 44.7% | 47% | 47% | 47% | 55.6% | 55.6% | 91% | Hill slope, Notch reporter assay ([2]; 14-point dose-response): -1.7; pIC50 [2, 13]: 6.64; IC50 [2, 15]: 251 nM; concentrations associated with cytotoxicity (high dose-points removed) [2]: higher than 12.5 µM |
| Cc1nn(-c2nc3ccccc3s2)c(O)c1C1OC(=O)c2ccccc21 (stereo not drawn) [compound E] |  |  | < 5.00 | 6.14 |  | 794 nM |  |  |  | 577.0 |  | 54.2 | - | 45% | 38% | 38% | 38% | 35.2% | 35.2% | 37.1% | pIC50 ([2]; 14-point dose-response, Fig. 4, read-out: approximated IC50, Notch reporter assay): 6.15 |

More lines, main results first:

| pIC50 [2, 3] | pIC50 [2, 6] | pIC50 ([1]; all cell lines (breast cancer)) | pIC50 [2, 11] | pIC50 [2, 12] | IC50 [2, 14] | SMILES | viability assay [1] | AUC 9p Notch reporter assay ([2]; 9p dose response) | AUC 14p Notch reporter assay ([2]; 14p dose response) | AUC Notch ([2]; replicates averaged) | Notch assay [2] | Bottom (Emax) ([2]; 14p Notch assay DR) | tumor cell growth [1] | activity at 10 µM [2, 16] | activity at 10 µM [2, 17] | activity at 10 µM [2, 18] | activity at 10 µM [2, 19] | activity at 25 µM [2, 20] | activity at 25 µM [2, 21] | activity [2, 22] | further results |
| --- | --- | --- | --- | --- | --- | --- | --- | --- | --- | --- | --- | --- | --- | --- | --- | --- | --- | --- | --- | --- | --- |
| 5.24 | 5.26 |  |  |  |  | CC(C)(C)c1ccc(Oc2ccc(N)cn2)cc1 [CB-103, reference compound] | context specific | 3.40E+02 | 5.46E+02 | 546.0 | lower potency; also recorded: lower activity than compound C |  |  |  |  |  |  |  |  |  | pIC50 [2, 4]: 4.82; IC50 [2, 5]: 15800 nM; IC50 [2, 7]: 6310 nM; pIC50 [2, 8]: 5.29; IC50 [2, 9]: 5010 nM |
| 7.35 | 7.28 |  |  |  |  | CC(C)(C(=O)NCC(F)(F)C(F)(F)F)C(=O)N[C@@H]1C(=O)Nc2ccccc2-c2ccccc21 [RO4929097, reference compound] | context specific | 2.36E+02 | 4.30E+02 | 430.0 | higher potency |  |  |  |  |  |  |  |  |  | pIC50 [2, 10]: 7.51 and 7.89; pIC50 [2, 4]: 7.66; IC50 [2, 5]: 20 nM; pIC50 ([2]; Homo sapiens, HEK-293T, 14p Notch assay DR, Notch inhibitor controls, no bottom constraint named, read-out: approximated IC50): 7.66; pIC50 ([2]; Homo sapiens, HEK-293T, 14p Notch assay DR, averaged when replicate measurements were available, read-out: averaged IC50s): 7.38; IC50 [2, 7]: 63.1 nM; pIC50 [2, 8]: 7.22; IC50 [2, 9]: 50.1 nM |

Reference: PMC13242511, “Disrupting Notch signalling by a small molecule inhibiting dihydroorotate dehydrogenase activity” (Scientific Reports, 2026)
